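Dose response: 5 concentrations. Exposure: 48 h. Format: 96-well plates. Endpoint: linear interpolation; highest concentration if not reached. TGI: concentration producing complete growth inhibition.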

Among the test systems are HCC-2998 colon; KM12 colon; SF-295 CNS; OVCAR-5 ovarian; OVCAR-4 ovarian; NCI-H522 lung; HOP-62 NSCLC; HCT-15 colon; DU-145 prostate; HS 578T breast.
Test in all cases: NCI tumour cell line growth inhibition, 48 h

On to `COc1cc(CNc2nc3ccccc3nc2C(=O)O)cc(OC)c1OC`, for which the TGI in the assay with HCC-2998 colon, in the assay on KM12 colon, in the assay on SF-295 CNS, in the assay with OVCAR-5 ovarian, with OVCAR-4 ovarian and with NCI-H522 lung was > 100 µM throughout. For the same compound, the TGI in the assay on HOP-62 NSCLC, in the assay with HCT-15 colon, with DU-145 prostate and with HS 578T breast was > 100 µM each time.
As to `c1ccc(CC2COC(c3cccs3)=N2)cc1` (stereo not given), the TGI in the assay on HCC-2998 colon, in the assay with KM12 colon, in the assay with SF-295 CNS, in the assay on OVCAR-5 ovarian, in the assay with OVCAR-4 ovarian and with NCI-H522 lung was > 100 µM each time. The TGI with HOP-62 NSCLC, in the assay on HCT-15 colon, in the assay on DU-145 prostate and with HS 578T breast was > 100 µM each time.
Consider `O=[N+]([O-])c1ccc(C(O)(C#CCN2CCCC2)c2ccccc2)cc1` (stereo not given), for which the TGI with HCC-2998 colon was 35.8 µM; with KM12 colon, > 100 µM; in the assay with SF-295 CNS, > 100 µM; with OVCAR-5 ovarian it was > 100 µM; with OVCAR-4 ovarian, > 100 µM; in the assay on NCI-H522 lung it was 54.9 µM. Also, the TGI in the assay with HOP-62 NSCLC was > 100 µM; in the assay on HCT-15 colon, > 100 µM; in the assay with DU-145 prostate, > 100 µM; in the assay with HS 578T breast, 95.7 µM.
With `CC(=O)OCC1OC(OCCCOP(=S)(OCCC#N)OCC2OC(n3ccc(N)nc3=O)C(OC(=O)c3ccccc3)C2OC(=O)c2ccccc2)C(OC(C)=O)C(OC(C)=O)C1OC(C)=O` (stereo not given), the TGI with HCC-2998 colon, with KM12 colon, in the assay with SF-295 CNS, with OVCAR-5 ovarian, in the assay with OVCAR-4 ovarian and with NCI-H522 lung was > 100 µM throughout. In addition, the TGI in the assay with HOP-62 NSCLC, with HCT-15 colon, in the assay on DU-145 prostate and with HS 578T breast was > 100 µM throughout.
`Clc1ccc2oc(CCc3ccccc3)nc2c1`: the TGI with HCC-2998 colon is 77.1 µM; in the assay with KM12 colon, > 100 µM; in the assay on SF-295 CNS, > 100 µM; in the assay on OVCAR-5 ovarian, > 100 µM; with OVCAR-4 ovarian, > 100 µM; in the assay on NCI-H522 lung, > 100 µM. For the same compound, the TGI in the assay on HOP-62 NSCLC, in the assay with HCT-15 colon, in the assay on DU-145 prostate and in the assay on HS 578T breast was > 100 µM each time.
As for `Cc1cnc2c(c1C)C(=O)c1ccccc1C2=O`, the TGI with HCC-2998 colon is > 100 µM; in the assay on KM12 colon, > 100 µM; with SF-295 CNS, > 100 µM; in the assay on OVCAR-5 ovarian, > 100 µM; with OVCAR-4 ovarian, 59.3 µM; in the assay on NCI-H522 lung, > 100 µM. For the same compound, the TGI is > 100 µM in the assay with HOP-62 NSCLC, 88.1 µM in the assay on HCT-15 colon, > 100 µM in the assay on DU-145 prostate and > 100 µM in the assay with HS 578T breast.
As for `CN(CCCNC(=O)c1cc(-c2ccccc2)nc2ccccc12)CCCNC(=O)c1cc(-c2ccccc2)nc2ccccc12`, the TGI in the assay with HCC-2998 colon amounted to 3.36 µM; in the assay with KM12 colon, 4.75 µM; with SF-295 CNS it was 3.31 µM; in the assay on OVCAR-5 ovarian, 4.81 µM; with OVCAR-4 ovarian, 11.3 µM; in the assay with NCI-H522 lung, 3.51 µM. Besides, the TGI was found to be 4.13 µM in the assay with HOP-62 NSCLC, 12.2 µM in the assay with HCT-15 colon, 9.49 µM with DU-145 prostate and 16 µM in the assay with HS 578T breast.
`c1ccc(N=C2c3ccsc3C(=Nc3ccccc3)c3ccsc32)cc1`: the TGI in the assay with HCC-2998 colon was found to be 7.25 µM; with KM12 colon, 6.35 µM; in the assay on SF-295 CNS, 3.11 µM; in the assay with OVCAR-5 ovarian, 3.12 µM; in the assay on OVCAR-4 ovarian, 3.32 µM; in the assay with NCI-H522 lung, 4.34 µM. In addition, the TGI with HOP-62 NSCLC came out at 3 µM; with HCT-15 colon, 4.12 µM; in the assay on DU-145 prostate, 3.12 µM; in the assay on HS 578T breast, 6.04 µM.
For the compound `COc1cccc(C(=O)C#Cc2cnc(OC)nc2OC)c1`, the TGI worked out at 17.5 µM in the assay on HCC-2998 colon; 18.7 µM in the assay on KM12 colon; 31.7 µM in the assay on SF-295 CNS; 8.05 µM in the assay with OVCAR-5 ovarian; 6.61 µM with OVCAR-4 ovarian; 0.762 µM in the assay on NCI-H522 lung. The TGI in the assay with HOP-62 NSCLC is 47.8 µM; with HCT-15 colon it was 0.516 µM; with DU-145 prostate it was 12.4 µM; in the assay on HS 578T breast it was > 30.2 µM.
As for `O=C(c1ccco1)N(C(=O)N1CCN(c2ccccc2)CC1)S(=O)(=O)c1ccccc1`, the TGI in the assay with HCC-2998 colon is > 100 µM; with KM12 colon, > 100 µM; with SF-295 CNS, > 100 µM; with OVCAR-5 ovarian, > 100 µM; in the assay with OVCAR-4 ovarian, > 100 µM; in the assay with NCI-H522 lung it was 41.2 µM. The TGI in the assay on HOP-62 NSCLC, in the assay on HCT-15 colon, in the assay on DU-145 prostate and with HS 578T breast was > 100 µM in each case.
On to `C[N+](C)(C)c1ncnc2c1ncn2C1CCCO1` (stereo not given), for which the TGI with HCC-2998 colon, in the assay with KM12 colon, with SF-295 CNS, with OVCAR-5 ovarian, in the assay on OVCAR-4 ovarian and in the assay on NCI-H522 lung was > 100 µM each time. Moreover, the TGI with HOP-62 NSCLC, in the assay on HCT-15 colon, in the assay with DU-145 prostate and with HS 578T breast was > 100 µM in each case.
`COC(=O)C(Cc1c[nH]c2ccccc12)N=C1Nc2ccncc2S(=O)(=O)N1c1cccc(OC(C)C)c1` (stereo not given): the TGI in the assay with HCC-2998 colon, in the assay with KM12 colon, in the assay with SF-295 CNS, in the assay on OVCAR-5 ovarian, in the assay with OVCAR-4 ovarian and in the assay with NCI-H522 lung was > 100 µM in each case. Also, the TGI in the assay on HOP-62 NSCLC, in the assay with HCT-15 colon, in the assay with DU-145 prostate and in the assay on HS 578T breast was > 100 µM each time.
`COc1ccc(C2=NOC(N)(c3ccc(OC)cc3)C2)cc1` (stereo not given): the TGI in the assay on HCC-2998 colon, in the assay on KM12 colon, in the assay with SF-295 CNS, in the assay with OVCAR-5 ovarian, with OVCAR-4 ovarian and in the assay on NCI-H522 lung was > 100 µM in each case. Besides, the TGI with HOP-62 NSCLC, with HCT-15 colon, in the assay with DU-145 prostate and in the assay on HS 578T breast was > 100 µM throughout.
As for `N#C/C(C(=S)NCc1ccccc1)=C(/N)N1CCCC1`, the TGI with HCC-2998 colon, with KM12 colon, with SF-295 CNS, with OVCAR-5 ovarian, in the assay on OVCAR-4 ovarian and in the assay on NCI-H522 lung was > 100 µM throughout. Also, the TGI with HOP-62 NSCLC, in the assay with HCT-15 colon, in the assay on DU-145 prostate and in the assay on HS 578T breast was > 100 µM each time.
`N#Cc1nc(C#N)n(S(=O)(=O)c2ccccc2)c1NS(=O)(=O)c1ccccc1`: the TGI in the assay on HCC-2998 colon, in the assay with KM12 colon, with SF-295 CNS, in the assay with OVCAR-5 ovarian, in the assay with OVCAR-4 ovarian and in the assay with NCI-H522 lung was > 100 µM each time. Also, the TGI in the assay on HOP-62 NSCLC, in the assay on HCT-15 colon, in the assay with DU-145 prostate and in the assay on HS 578T breast was > 100 µM in each case.
In the case of `NC(Cc1ccc(S(=O)(=O)O)cc1)C(=O)NC(Cc1ccc(S(=O)(=O)O)cc1)C(=O)NC(Cc1ccc(S(=O)(=O)O)cc1)C(=O)NC(Cc1ccc(S(=O)(=O)O)cc1)C(=O)O` (stereo not given), the TGI in the assay with HCC-2998 colon, in the assay with KM12 colon, in the assay on SF-295 CNS, in the assay on OVCAR-5 ovarian, in the assay on OVCAR-4 ovarian and with NCI-H522 lung was > 100 µM throughout. The TGI with HOP-62 NSCLC, in the assay with HCT-15 colon, in the assay with DU-145 prostate and in the assay with HS 578T breast was > 100 µM throughout.
With `COC(=O)C1CCC(=O)N1C(c1ccc2c(c1)OCO2)c1cc(OC)c(OC)c(OC)c1` (stereo not given), the TGI with HCC-2998 colon is > 100 µM; in the assay with KM12 colon it was > 100 µM; in the assay on SF-295 CNS, > 100 µM; with OVCAR-5 ovarian it was > 100 µM; in the assay on OVCAR-4 ovarian, > 100 µM; in the assay on NCI-H522 lung it was 24.4 µM. The TGI in the assay on HOP-62 NSCLC, with HCT-15 colon, with DU-145 prostate and with HS 578T breast was > 100 µM in each case.
On to `O=c1[nH]nc(-c2ccccc2)n1O`, for which the TGI with HCC-2998 colon, with KM12 colon, in the assay with SF-295 CNS, with OVCAR-5 ovarian, with OVCAR-4 ovarian and in the assay on NCI-H522 lung was > 100 µM throughout. In addition, the TGI in the assay on HOP-62 NSCLC, with HCT-15 colon, in the assay with DU-145 prostate and in the assay with HS 578T breast was > 100 µM throughout.

(Values after PubChem BioAssay (NCI).)
